Experimental data from US9426996B2, “Use of benzoxaboroles as volatile antimicrobial agents on meats, plants, or plant parts” (AgroFresh Inc., priority 2013, dated 2016).

Legend:
Alternaria alternata [1] = assay: combination treatment with 1-MCP on broccoli; format: in vivo; parameters: scale not given here; conditions: 1-MCP alone, 11 C.
Alternaria alternata [2] = assay: combination treatment with 1-MCP on broccoli; format: in vivo; parameters: scale not given here; conditions: 1-MCP alone, 21° C.
Description: To evaluate a combination treatment of Compound A with 1-methylcyclopropene (1-MCP), an in vivo experiment is performed on broccoli.
Broccoli flowers are inoculated with 1×10^6 spores/mL of Alternaria alternata and then placed in a 117 L Rubbermaid storage box (Cat #2244) with two small fans placed in opposite ends of the container. A 500 ppb v/v 1-MCP treatment is applied (AgroFresh, Springhouse, Pa.) for 24 hours at 1° C. After completion of the 1-MCP treatment, broccoli florets are removed and placed in a 10.8-cup SnapWare airtight container (Model #109842). Compound A powder is applied in a dose dependent manner to achieve a final headspace concentration of 2 or 0.4 mg/L with a sublimation device (copper tube heated to 200° C. with fan flow at 0.5 L/min), with the end of the tube penetrating through a ½ inch side port in the container that is sealed immediately after the application. The florets are incubated for five days at 10° C. or three days at 21° C., then evaluated for an additional five days at 21° C. for disease incidence and severity.

Botrytis cinerea [3] = assay: combination treatment with 1-MCP on white roses; format: in vivo; conditions: 1-MCP 500 ppb v/v for 24 hours, no Compound A
Description: To evaluate a combination treatment of Compound A with 1-methylcyclopropene (1-MCP), an in vivo experiment is performed on white roses.
Five white roses are placed in an 800 mL jar containing 200 mL of a common commercial flower preservative. Three jars are then placed in a 117 L Rubbermaid storage box (Cat #2244). Two small fans are placed in opposite ends of the container to assist with the distribution of the two volatiles. A 500 parts per billion (ppb) volume per volume (v/v) 1-MCP treatment is applied (AgroFresh, Springhouse, Pa.) for 24 hours at 21° C. After the 1-MCP treatment is completed, the containers are vented, and Compound A powder is applied in a dose dependent manner to achieve a final headspace concentration of 0.2, 0.04, or 0.008 mg/L with a sublimation device (copper tube heated to 200° C. with fan flow at 0.5 L/min), with the end of the tube penetrating through a ½ inch side port in the container that is sealed immediately after the application. The flowers are incubated for three days at 21° C. After treatment, the flowers are evaluated for an additional seven days at 21° C. for disease incidence and severity of the flower petals.

Alternaria alternata [4] = assay: combination treatment with 1-MCP on tomato; format: in vivo; conditions: tomatoes; 1-MCP 1000 ppb v/v alone
Description: Each tomato fruit is wounded three times and inoculated with 1×10^6 spores/mL of Alternaria alternata and then placed in a 117 L Rubbermaid storage box (Cat #2244) with two small fans placed in opposite ends of the container. A 1000 ppb v/v 1-MCP treatment is applied (AgroFresh, Springhouse, Pa.) for 24 hours at 21° C. After completion of the 1-MCP treatment, the tomatoes are removed and placed in a 10.8-cup […] airtight container (Model #109842). […] The tomatoes are incubated for three days at 21° C., then evaluated for an additional three days at 21° C. for disease incidence and severity. Results listed in Table 29 show good activity against Alternaria alternata infection of tomato.

Penicillium digitatum [5] = assay: in vivo volatile bioassay using orange (Compound B, sublimation); conditions: for Sporulation (mm) / Water soaked lesions (mm): oranges
Description: Two oranges per replicate are placed inside a clamshell. Three fresh wounds per orange are inoculated with 30 μL of 1×10^6 per mL Penicillium digitatum spore suspension. The clamshells are placed inside a 10.8-cup SnapWare airtight container (Model #109842). […] After storage, fruits are evaluated for disease incidence (mm diameter of the rot) and pathogen sporulation (mm diameter) on the surface of the fruits for an additional three days at 21° C., with results summarized in Table 20.

Botrytis cinerea [6] = assay: in vitro inhibition assay for volatile antimicrobial compounds (12-well PDA plates); format: cell-based; conditions: in vitro; volatile; 14 days at 4° C.
Description: 12-Well (7 milliliter (mL volume per well) microtiter plates are used for the in vitro inhibition assay for volatile antimicrobial compounds. A 3-mL volume of full-strength Potato Dextrose Agar (PDA) is added to each well. After cooling, 1 microliter (μL) of 1×10^6 per mL Botrytis cinerea spore suspension is spot pipetted to the center of the agar. For the first experiment, inoculated plates are allowed to germinate for 5 days at 4° C. For the second experiment, plates are inoculated immediately prior to volatile fungicide treatment. Small Whatman #1 filter disks (Cat. No. 1001-0155) are placed, in duplicate, on the underside of a polyethylene PCR plate sealing film.
The acetone is permitted to evaporate for 5 minutes. The headspace around the Botrytis cinerea inoculum is then sealed inside the well by the film with the adhering disk containing the fungicide. Plates are inverted, placed over the treated disks and sealed to prevent any of the chemical from flaking from the disk and falling onto the inoculated agar. After 14 days of storage at 4° C., cultures are evaluated for percent growth relative to control. Regardless of whether the spores had germinated for 5 days, or if the treatment commenced soon after inoculation of the plates (˜15 minutes); there is 100% control of the fungal pathogen down to 0.005 mg.
A total of 14 antimicrobial compounds are tested using the in vitro inhibition assay described in Example 1. All 14 compounds are applied to the Whatman disks, in duplicate, in a dose dependent manner (0.31 to 0.0006 mg/disk). […] Other compounds, such as Compound C, Compound D, and Compound E conferred 100% control down to 0.023, 0.04, and 0.08 mg/disk, respectively. Results of nine compounds are summarized in Table 2, where the other five compounds show no detected activity in the ranges tested. […]

Penicillium expansum = assay: in vivo sublimation bioassay on fruit, 1 mg/L (Example 31); conditions: 1 mg/L sublimed, three day treatment plus three days at 21° C.
Description: (§1) To assess the in vivo activity of volatile antimicrobial Compounds A and B (FIG. 1) in fruit, a volatile bioassay is developed using apple, pear, orange, strawberry, grape and blueberry.
(§2) Two apples, 2 oranges, 2 pears, 8 strawberries, 16 grapes or 30 blueberries (per replicate, in duplicate) are placed in a clamshell with the stem end facing up for all fruits except for strawberry (stem end facing downwards). A fresh wound is inoculated with 20 μL 1×10^6 per mL Penicillium expansum spore suspension (apple and pear), 20 μL 1×10^6 per mL Penicillium digitatum spore suspension (orange), and 20 μL (strawberry and grape) or 10 μL (blueberry) of 1×10^6 per mL Botrytis cinerea spore suspension. The clamshells are placed inside a 117 L Rubbermaid storage box (Cat #2244) with lids closed. […] After treatment, fruits are held for an additional three days at 21° C., then evaluated for disease incidence (mm diameter of browning or water-soaked lesions) and pathogen sporulation (mm diameter) for apple, pear and orange, as well as Botrytis cinerea disease incidence (%) and severity (0 to 4) for strawberry, grape and blueberry, with results summarized in Table 30.

Botrytis cinerea [7] = assay: as above; conditions: for Incidence (%) / Severity (0-4): 1 mg/L sublimed, three day treatment plus three days at 21° C.
Description: as §1, §2

Penicillium digitatum [8] = assay: as above
Description: as §1, §2

Botrytis cinerea [9] = assay: in vivo volatile bioassay using strawberry
Description: In order to assess the in vivo activity of volatile antimicrobial compounds, a volatile bioassay is developed using strawberry. Two fruit are placed inside a 240 mL jar, with the calyx facing downwards. […] The acetone is permitted to evaporate for 5 minutes. The jars are then capped with the lids containing the fungicide, and placed for 5 days at 21° C. After storage, fruit are evaluated for incidence and severity of disease and appearance of phytotoxicity.

[10] = Orange, 1 mg/L sublimed, three day treatment plus three days at 21° C.

For `CC1=CC1` [Compound 1-MCP, 1-methylcyclopropene, reference compound], the “Color Score” value (Alternaria alternata [1]) was 1.50, the Severity (Alternaria alternata [1]) was 0.18 and the “Color Score” value (Alternaria alternata [2]) was 1.79. The Severity (Alternaria alternata [2]) was 0.61, the “Incidence (%)” value (Botrytis cinerea [3]) was 33.3% and the “Severity (0-4)” value (Botrytis cinerea [3]) was 0.4. The “Diameter of the rot (mm)” value (Alternaria alternata [4]) was 13.6 mm.

In the case of `OB1OCc2ccccc21` [Compound B, 2-(hydroxymethyl)phenylboronic acid cyclic monoester], the “in vivo volatile inhibition of P. digitatum in orange” value (Penicillium digitatum [5]; 10 mg/L) is reported as “complete inhibition”, the “Sporulation (mm)” value (Penicillium digitatum [5]; 0.4 mg/L, Day 0) is reported as 0.7 mm and the “Water soaked lesions (mm)” value (Penicillium digitatum [5]; 0.4 mg/L, Day 0) is reported as 5.7 mm. The “Sporulation (mm)” value (Penicillium digitatum [5]; 0.4 mg/L, Day 1) was 1.4 mm, the “Water soaked lesions (mm)” value (Penicillium digitatum [5]; 0.4 mg/L, Day 1) was 29.4 mm and the “Sporulation (mm)” value (Penicillium digitatum [5]; 0.4 mg/L, Day 2) was 8.1 mm. For the same compound, the “Water soaked lesions (mm)” value (Penicillium digitatum [5]; 0.4 mg/L, Day 2) was 49.3 mm, the “Sporulation (mm)” value (Penicillium digitatum [5]; 0.4 mg/L, Day 3) was 27.2 mm and the “Water soaked lesions (mm)” value (Penicillium digitatum [5]; 0.4 mg/L, Day 3) was 63.4 mm. The “Sporulation (mm)” value (Penicillium digitatum [5]; 2 mg/L, Day 0) was 0 mm, the “Water soaked lesions (mm)” value (Penicillium digitatum [5]; 2 mg/L, Day 0) was 0.5 mm and the “Sporulation (mm)” value (Penicillium digitatum [5]; 2 mg/L, Day 1) was 0.3 mm. The “Water soaked lesions (mm)” value (Penicillium digitatum [5]; 2 mg/L, Day 1) was 7.8 mm, the “Sporulation (mm)” value (Penicillium digitatum [5]; 2 mg/L, Day 2) was 2.8 mm and the “Water soaked lesions (mm)” value (Penicillium digitatum [5]; 2 mg/L, Day 2) was 30.7 mm. For the same compound, the “Sporulation (mm)” value (Penicillium digitatum [5]; 2 mg/L, Day 3) was 5.7 mm, the “Water soaked lesions (mm)” value (Penicillium digitatum [5]; 2 mg/L, Day 3) was 42.6 mm and the “Sporulation (mm)” value (Penicillium digitatum [5]; 10 mg/L, Day 0) was 0 mm. For the same compound, the “Water soaked lesions (mm)” value (Penicillium digitatum [5]; 10 mg/L, Day 0) was 0 mm, the “Sporulation (mm)” value (Penicillium digitatum [5]; 10 mg/L, Day 1) was 0 mm and the “Water soaked lesions (mm)” value (Penicillium digitatum [5]; 10 mg/L, Day 1) was 0 mm. For the same compound, the “Sporulation (mm)” value (Penicillium digitatum [5]; 10 mg/L, Day 2) was 0 mm, the “Water soaked lesions (mm)” value (Penicillium digitatum [5]; 10 mg/L, Day 2) was 0 mm and the “Sporulation (mm)” value (Penicillium digitatum [5]; 10 mg/L, Day 3) was 0 mm. For the same compound, the “Water soaked lesions (mm)” value (Penicillium digitatum [5]; 10 mg/L, Day 3) was 0.8 mm, the “Sporulation (mm)” value (Penicillium digitatum [5]; 50 mg/L, Day 0) was 0 mm and the “Water soaked lesions (mm)” value (Penicillium digitatum [5]; 50 mg/L, Day 0) was 0 mm. For the same compound, the “Sporulation (mm)” value (Penicillium digitatum [5]; 50 mg/L, Day 1) was 0 mm, the “Water soaked lesions (mm)” value (Penicillium digitatum [5]; 50 mg/L, Day 1) was 0 mm and the “Sporulation (mm)” value (Penicillium digitatum [5]; 50 mg/L, Day 2) was 0 mm. The “Water soaked lesions (mm)” value (Penicillium digitatum [5]; 50 mg/L, Day 2) was 0 mm, the “Sporulation (mm)” value (Penicillium digitatum [5]; 50 mg/L, Day 3) was 0 mm and the “Water soaked lesions (mm)” value (Penicillium digitatum [5]; 50 mg/L, Day 3) was 0 mm. For the same compound, the “lowest rate with 100% control of Botrytis cinerea” value (Botrytis cinerea [6]) was 0.0078 mg/disk, the “Browning (mm)” value (Penicillium expansum; Apple) was 2.3 mm and the “Sporulation (mm)” value (Penicillium expansum; Apple) was 0.2 mm. For the same compound, the “Browning (mm)” value (Penicillium expansum; Pear) was 1.1 mm, the “Sporulation (mm)” value (Penicillium expansum; Pear) was 0.0 mm and the “in vivo antimicrobial control of B. cinerea” value (Botrytis cinerea [7]; 1 mg/L, volatile fungicide on different hosts) was 100%. The “Incidence (%)” value (Botrytis cinerea [7]; Blueberry) was 0.0%, the “Severity (0-4)” value (Botrytis cinerea [7]; Blueberry) was 0.0 and the “Incidence (%)” value (Botrytis cinerea [7]; Grape) was 0.0%. For the same compound, the “Severity (0-4)” value (Botrytis cinerea [7]; Grape) was 0.0, the “Incidence (%)” value (Botrytis cinerea [7]; Strawberry) was 0.0% and the “Severity (0-4)” value (Botrytis cinerea [7]; Strawberry) was 0.0. For the same compound, the “in vivo antimicrobial control of P. digitatum” value (Penicillium digitatum [8]; 1 mg/L, volatile fungicide) was 100%, the “Sporulation (mm)” value (Penicillium digitatum [8]; [10]) was 0.0 mm and the Water soaked lesion (Penicillium digitatum [8]; [10]) was 0.0 mm. For the same compound, the “Percent (%) Incidence of Botrytis cinerea on Strawberry (in vivo)” value (“Percent (%) Incidence” below) (Botrytis cinerea [9]; 0.005 mg/disk, 5 days at 21° C.) was 100%, the “Percent (%) Incidence” value (Botrytis cinerea [9]; 0.01 mg/disk, 5 days at 21° C.) was 100% and the “Percent (%) Incidence” value (Botrytis cinerea [9]; 0.02 mg/disk, 5 days at 21° C.) was 100%. The “Percent (%) Incidence” value (Botrytis cinerea [9]; 0.04 mg/disk, 5 days at 21° C.) was 75%, the “Percent (%) Incidence” value (Botrytis cinerea [9]; 0.08 mg/disk, 5 days at 21° C.) was 50% and the “Percent (%) Incidence” value (Botrytis cinerea [9]; 0.16 mg/disk, 5 days at 21° C.) was 25%. For the same compound, the “Percent (%) Incidence” value (Botrytis cinerea [9]; 0.32 mg/disk, 5 days at 21° C.) was 0%, the “Percent (%) Incidence” value (Botrytis cinerea [9]; 0.64 mg/disk, 5 days at 21° C.) was 0% and the “Percent (%) Incidence” value (Botrytis cinerea [9]; 1.25 mg/disk, 5 days at 21° C.) was 0%. For the same compound, the “Percent (%) Incidence” value (Botrytis cinerea [9]; 2.5 mg/disk, 5 days at 21° C.) was 0%, the “lowest rate with 100% control of Botrytis cinerea” value (Botrytis cinerea [9]; strawberry, 5 days at 21° C.) was 0.32 mg/disk and the appearance of phytotoxicity (Botrytis cinerea [9]; strawberry, any of the rates evaluated (2.5 to 0.005 mg/disk)) was “no evidence of phytotoxicity”.
